Source: US20250319139A1, “METHODS FOR TREATING NEUROINFLAMMATION” (University of Virginia Patent Foundation, priority 2021, published 2025)
Entries after “also recorded” stand apart in the source; their conditions may differ.

Columns and labels:
C57BL/6J mice [1] = experiment: Barnes maze test, young adult mice; assay type: in vivo, mouse
IL-6 = experiment: ELISA of IL-6 in the serum; assay type: in vivo, mouse; settings: young mice, 100 mg/kg intraperitoneal 1 h before and 6 h after 120-min MCAO; 24 h after MCAO; vs saline
Protocol: Mice were weighed and anesthetized with isoflurane at 24 h after MCAO. Blood samples were obtained from the right heart after thoracotomy. Blood was centrifuged (13,000 g, 4° C.) after it had been placed at 4° C. for 2 h for the collection of serum. After the collection of blood, mice were perfused with 4° C. saline for brain tissue harvesting. The cerebral cortex (anteroposterior: −1.5 to 2.5 mm, mediolateral: 1.0 to 3.0 mm) was dissected out. All dissection procedures were performed on ice.
IL-10, IL-17, IL-1β and IL-6 in the serum and brain were detected by using ELISA kits (catalog number: M1000B, M1700, MLB00C and D6050, R&D SYSTEM, Inc., Minneapolis, MN, USA) as we described before. The brain tissues were homogenized on ice in the RIPA buffer containing 25 mM Tris-HCl with pH 7.6, 150 mM NaCl, 1% sodium deoxycholate and 0.1% SDS (catalog number: 89901, Thermo Scientific, Rockford, IL, USA) and a protease inhibitor cocktail containing 10 mg/ml aproteinin, 5 mg/ml peptastin, 5 mg/ml leupetin and 1 mM phenylmethane sulfonylfluoride (catalog number: SRE0055, Sigma-Aldrich, St. Louis, MO, USA). The supernatant was collected for ELISA detection after being centrifuged for 20 min (13,000 g, 4° C.) and the protein concentration was determined by the BCA method. Cytokines in the serum and supernatant of brain were detected according to the manufacturer's instruction. […]

C57BL/6J mice [2] = experiment: Novel object recognition test, old mice; assay type: in vivo, mouse; settings: old mice with exercise and surgery; intraperitoneal valeric acid once a week vs normal saline
[3] = tested on: dendritic branches and spines of hippocampal neurons; experiment: Golgi staining, dendritic arborization; assay type: in vivo, mouse; settings: young adult mice with exercise and surgery; intraperitoneal valeric acid
Protocol: Golgi staining was performed using FD Rapid GolgiStain™ Kit. Nineteen days after surgery, brains of 6 mice in each group were immersed in the impregnation solution (solutions A and B: 1:1) for 2 weeks and then transferred to solution C for 3 days. Coronal brain sections at a thickness of 100 μm and around-2.7 mm from bregma were cut on a vibratome (Microslicer® 10110, Ted Pella, Inc. California, USA). As described before, more than 10 well individualized neurons in the dentate gyrus (DG) region of the hippocampus were randomly selected from each mouse, and sequential optical multiple-layers scanning images were taken at an interval 2.0 μm along the z-axis (3DHISTECH, Pannoramic MIDI, Hungary) with 20× objective. The multiple-layer scanning files were superposed to become one clear scanning file that can be viewed with Caseviewer (3DHISTECH, Hungary) on a computer. The total branch number and dendritic length were measured by Fiji software (Fiji-win64, NIH, USA). The complexity of total dendritic trees (intersections) was estimated using Sholl analysis. For spine density measurement, 5 neurons were selected from each animal. […] The spine numbers in 40 μm segments were counted by an observer who was blind to group assignment. The results were expressed as the number of spines/10 μm segments. […]

[4] = references [27, 32]; cited from earlier work
[5] = Plasma SCFA profiling by GC-MS; assay type: in vivo, mouse; settings: mice with exercise and surgery, intraperitoneal valeric acid; blood 7 days after surgery
Iba-1 = Iba-1 immunofluorescent staining of hippocampus; assay type: in vivo, mouse; settings: young adult mice with exercise and surgery; intraperitoneal valeric acid
Protocol: The immunofluorescent labeling and quantification of the staining were performed as described before. Briefly, brain was fixed in 4% paraformaldehyde at 4° C. for 24 h and then incubated in 30% sucrose over night at 4° C. before being frozen in optimal cutting temperature compound. Coronal 20-μm thick sections were cut sequentially from Bregma -3 to -6 mm by using a cryostat and mounted on microscope slides. After being washed in Tris-buffered saline (TBS), sections were blocked in 10% donkey serum plus 1% bovine serum albumin (BSA) in TBS containing 0. 3% triton-X 100 for 2 h at room temperature and then incubated at 4° C. overnight with the following primary antibodies: rabbit monoclonal anti-C3 antibody (1:50), goat monoclonal anti-GFAP antibody (1:200), rat monoclonal anti-[…] antibody (1:50) and rabbit monoclonal anti-Iba-1 antibody (1:200). Sections were rinsed in TBS with 0.1% Triton-x 100. […] The quantification was performed as described previously. […] The number of pixels per image with intensity above a predetermined threshold level was considered as a positively stained area for an interested marker and quantified using the Image-pro plus 6.0 (Media Cybernetics, Inc., Rockville, MD, USA) and presented as percentage of positive area in the total area. […] All quantitative analyses were performed in a blinded manner.

CCCCC(=O)O [valeric acid]
performance in the Barnes maze (C57BL/6J mice [1]; 13-week old mice without surgery, intracerebroventricular 4 mg/kg once daily for 4 days (1/50 dose of intraperitoneal injection)): did not affect the performance | time to identify target box in the Barnes maze test (C57BL/6J mice [1]; young adult mice with exercise and surgery, valeric acid 200 mg/kg intraperitoneal once a week vs normal saline): reversed the effects of exercise | IL-6 in the blood (IL-6): increased | performance in novel object recognition test (C57BL/6J mice [2]): impaired the performance | exercise attenuation of the decrease of intersections among dendritic branches [3]: this attenuation was blocked | exercise attenuation of the decrease of spine density in the hippocampus [3]: this attenuation was blocked | crossing of blood-brain barrier [4]: can cross blood-brain barrier | butyric acid in the blood [5]: attenuated this reduction | hexanic acid in the blood [5]: attenuated this reduction | valeric acid in the blood [5]: attenuated this reduction; also recorded: did not increase | exercise-induced reduction of Iba-1 in the hippocampus (Iba-1): this reduction was blocked
